This assay addresses T1, PLK4 (Homo sapiens, UniProt O00444).
T1 construct: expressed in transfected cells; host or cells: HEK293 T cells (ATCC CRL-3216)
T1 sequence (O00444 1-970): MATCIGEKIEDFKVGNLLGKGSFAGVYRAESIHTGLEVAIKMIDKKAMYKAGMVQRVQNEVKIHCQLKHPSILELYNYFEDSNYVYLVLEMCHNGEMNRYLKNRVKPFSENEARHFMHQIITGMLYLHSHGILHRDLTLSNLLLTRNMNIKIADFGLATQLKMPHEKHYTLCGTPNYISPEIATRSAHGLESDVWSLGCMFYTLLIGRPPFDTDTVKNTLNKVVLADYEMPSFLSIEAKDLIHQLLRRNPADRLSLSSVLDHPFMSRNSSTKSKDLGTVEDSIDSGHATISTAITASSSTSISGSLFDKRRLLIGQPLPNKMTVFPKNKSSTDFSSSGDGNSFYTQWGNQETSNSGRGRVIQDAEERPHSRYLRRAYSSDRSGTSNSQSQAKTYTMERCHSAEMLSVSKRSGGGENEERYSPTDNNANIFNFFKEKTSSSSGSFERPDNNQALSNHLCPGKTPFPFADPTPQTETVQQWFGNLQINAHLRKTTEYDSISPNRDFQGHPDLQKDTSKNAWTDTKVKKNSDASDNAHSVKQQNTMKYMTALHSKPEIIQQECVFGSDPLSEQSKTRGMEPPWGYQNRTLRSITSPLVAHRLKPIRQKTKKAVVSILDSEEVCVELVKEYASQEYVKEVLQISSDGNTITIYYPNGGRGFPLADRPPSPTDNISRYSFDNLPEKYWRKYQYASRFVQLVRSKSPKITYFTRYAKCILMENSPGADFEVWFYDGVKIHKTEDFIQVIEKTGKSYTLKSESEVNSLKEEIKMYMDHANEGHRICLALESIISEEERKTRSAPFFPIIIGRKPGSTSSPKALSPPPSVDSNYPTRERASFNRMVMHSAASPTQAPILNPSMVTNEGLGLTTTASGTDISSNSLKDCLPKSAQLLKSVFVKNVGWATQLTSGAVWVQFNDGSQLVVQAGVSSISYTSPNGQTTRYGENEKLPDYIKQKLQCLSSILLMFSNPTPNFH
Put plainly: PLK4 NanoBRET target engagement assay. Type of assay: binding. The conditions noted are these: HEK293 T cells transfected with PLK4 NanoLuc fusion vector; K-5 tracer; 2 hrs incubation. On the procedure: To determine the affinity of Compounds described herein in the PLK4 NanoBRET target engagement assay, HEK293 T cells (ATCC Product Number CRL-3216) are first transfected with the PLK4 NanoLuc fusion vector DNA and Transfection carrier DNA using the Fugene HD Transfection reagent in Opti-MEM No Phenol Red buffer. After an overnight incubation in a 37° C./5% CO2 incubator, the transfected HEK293 T cells are trypsinized, counted, and resuspended in Opti-MEM No Phenol Red buffer at a concentration of 200000 cells/mL. White 96-well plates are then plated with 85 μL of cells (17000 cells/well) to which 5 μL of the 20×K-5 tracer solution diluted in tracer dilution buffer is added. Finally, 10 μL of the 10× compounds are added and the plates and then incubated in a 37° C./5% CO2 incubator for 2 hrs. After the incubation, a 50 uL 3× solution of the substrate/inhibitor mix is added to the cells. The plate is then transferred in the Envision plate reader where the Acceptor emission (610 nm) and the Donor emission (450 nm) are measured.
The IC50 of compounds is determined as follows: • 1. The ratio between the Acceptor emission (610 nm)/Donor emission (450 nm) is calculated. • 2. This ratio is then multiplied by 1000 to obtain the mBRET units (multiplying by 1000 is an arbitrary step that simply makes the data easier to interpret; it has no impact on the data set itself) • 3. The mBRET units are then used in Scigilian Analyze software (https://analyze.scigilian.io) to determine the IC50 value using a 4-parameter fit analysis.
For orientation: BRET reads energy transfer from a luciferase to a nearby fluorophore.
For the compound `COc1c(Nc2cc(C)[nH]n2)nc(Oc2ccc(NS(C)(=O)=O)cc2)nc1-c1cnn(C)c1` [Compound 32], half-maximal inhibition (IC50) was put at 2800 nM.
For `COc1c(Nc2cc(C)[nH]n2)nc(Oc2ccc(S(C)(=O)=O)cc2Br)nc1-c1cnn(C)c1` [Compound 33] the value was 1100 nM.
To `COc1c(Nc2cc(C)[nH]n2)nc(Oc2ccc(S(C)(=O)=O)cc2Cl)nc1-c1cnn(C)c1` [Compound 34] belongs 900 nM.
For `COc1c(Nc2cc(C)[nH]n2)nc(Oc2ccc(Br)c(C#N)c2)nc1-c1cnn(C)c1` [Compound 36] the value was 7000 nM.
As to `COc1c(Nc2cc(C)[nH]n2)nc(Nc2ccc(S(C)(=O)=O)cc2)nc1-c1cnn(C)c1` [Compound 37], half-maximal inhibition (IC50) required 550 nM.
Take `Cc1cc(Nc2nc(N(C)c3c(F)cc(S(C)(=O)=O)cc3F)nc(-c3cn[nH]c3)c2C2CC2)n[nH]1` [Compound 40]: the IC50 (commonly the concentration that gives 50% inhibition) turned out to be 10 nM.
To `COc1c(Nc2cc(C)[nH]n2)nc(N(C(C)=O)c2ccc(S(C)(=O)=O)cc2F)nc1-c1cnn(C)c1` [Compound 41] belongs 680 nM; to `Cc1cc(Nc2nc(N(C)c3ccc(S(C)(=O)=O)cc3F)nc(-c3cnn(C)c3)c2C)n[nH]1` [Compound 42], 14 nM.
To `Cc1cc(Nc2nc(N(C)c3ccc(S(C)(=O)=O)cc3F)nc(-c3cnnn3C)c2C2CC2)n[nH]1` [Compound 43] belongs 180 nM.
For `Cc1cc(Nc2nc(N(C)c3ccc(S(C)(=O)=O)cc3F)nc(-c3ncc(C)s3)c2C2CC2)n[nH]1` [Compound 44] the value was 240 nM; for `Cc1csc(-c2nc(N(C)c3ccc(S(C)(=O)=O)cc3F)nc(Nc3cc(C)[nH]n3)c2C2CC2)n1` [Compound 45], 140 nM.
In turn, `COc1c(Nc2cc(C)[nH]n2)nc(N(C)c2ccc(CN3CCOC3=O)cc2)nc1-c1cnn(C)c1` [Compound 46] had an IC50 of 110 nM.
Consider `COc1c(Nc2cc(C)[nH]n2)nc(N(C)c2ccc(CS(C)(=O)=O)cc2)nc1-c1cnn(C)c1` [Compound 47], for which the half-inhibitory concentration (IC50) is 2300 nM.
The compound `Cc1cc(Nc2nc(N(C)c3ccc(S(C)(=O)=O)cc3Cl)nc(-c3ccn(C)n3)c2C2CC2)n[nH]1` [Compound 48] came in with an IC50 of 50 nM.
To `COc1c(Nc2cc(C)[nH]n2)nc(N(C)c2ccc(S(C)(=O)=O)c(F)c2F)nc1-c1cnn(C)c1` [Compound 49] belongs 54 nM; to `COc1c(Nc2cc(C)[nH]n2)nc(N(C)c2ccc(CN(C(C)=O)c3ccccc3)cc2F)nc1-c1cnn(C)c1` [Compound 50], 770 nM; to `CCCS(=O)(=O)c1ccc(N(C)c2nc(Nc3cc(C)[nH]n3)c(OC)c(-c3cnn(C)c3)n2)cc1` [Compound 51], 220 nM.
To `COc1c(Nc2cc(C)[nH]n2)nc(N(C)c2ccc(CN(C)C(=O)c3ccccc3)cc2F)nc1-c1cnn(C)c1` [Compound 52] belongs 290 nM.
For `Cc1cc(Nc2nc(N(C)c3ccc(S(C)(=O)=O)cc3Br)nc(-c3cnn(C)c3)c2C2CC2)n[nH]1` [Compound 53] the value was 63 nM; for `COc1c(Nc2cc(C)[nH]n2)nc(N(C)c2ccc(S(C)(=O)=O)nc2C)nc1-c1cnn(C)c1` [Compound 54], 2100 nM; for `COc1c(Nc2cc(C)[nH]n2)nc(N(C)c2ccc(S(=O)(=O)CC(C)C)cc2)nc1-c1cnn(C)c1` [Compound 55], 320 nM.
`Cc1cc(Nc2nc(N(C)c3ccc(S(C)(=O)=O)cc3C)nc(-c3cnn(C)c3)c2C2CC2)n[nH]1` [Compound 56] gave a half-inhibitory concentration (IC50) of 130 nM.
With `COc1c(Nc2cc(C)[nH]n2)nc(N(C)c2ccc(S(C)(=O)=O)nc2)nc1-c1cnn(C)c1` [Compound 58], the IC50 turned out to be 1100 nM.
To `COc1c(Nc2cc(C)[nH]n2)nc(N(C)c2ccc(-c3ccnn3C)cc2)nc1-c1cnn(C)c1` [Compound 59] belongs 280 nM; to `Cc1cc(Nc2nc(N(C)c3ccc(S(C)(=O)=O)cc3F)nc(-c3ccn(C)n3)c2C(C)C)n[nH]1` [Compound 60], above 5000 nM.
To `COc1c(Nc2cc(C)[nH]n2)nc(N(C)c2ccc(C(C)(C)C#N)cc2)nc1-c1cnn(C)c1` [Compound 61] belongs 100 nM; to `Cc1cc(Nc2nc(N(C)c3ccc(S(C)(=O)=O)cc3F)nc(-c3cnn(C4CN(S(C)(=O)=O)C4)c3)c2C2CC2)n[nH]1` [Compound 62], 28 nM; to `COc1c(Nc2cc(C)[nH]n2)nc(N(C)c2ccc(C#N)cc2F)nc1-c1cnn(C)c1` [Compound 63], 280 nM.
For `COc1c(Nc2cc(C)[nH]n2)nc(N(C)c2ccc(Cn3ccnc3)cc2F)nc1-c1cnn(C)c1` [Compound 64] the value was 59 nM; for `COc1c(Nc2cc(C)[nH]n2)nc(N(C)c2cc3c(cc2F)OCO3)nc1-c1cnn(C)c1` [Compound 65], 820 nM; for `COCCCS(=O)(=O)c1ccc(N(C)c2nc(Nc3cc(C)[nH]n3)c(OC)c(-c3cnn(C)c3)n2)cc1` [Compound 67], 270 nM.
For `COc1c(Nc2cc(C)[nH]n2)nc(N(C)c2ccc3c(c2)CCS3(=O)=O)nc1-c1cnn(C)c1` [Compound 68], the 50% inhibitory concentration (IC50) turned out to be 1000 nM.
Regarding `COc1c(Nc2cc(C)[nH]n2)nc(N(C)c2ccc(Oc3nccs3)cc2)nc1-c1cnn(C)c1` [Compound 69], the 50% inhibitory concentration (IC50) stood at 700 nM.
For `CCS(=O)(=O)c1ccc(N(C)c2nc(Nc3cc(C)[nH]n3)c(OC)c(-c3cnn(C)c3)n2)cc1` [Compound 70] the value was 170 nM; for `COc1c(Nc2cc(C)[nH]n2)nc(N(C)c2cccc(C(=O)N(C)C)c2F)nc1-c1cnn(C)c1` [Compound 71], 740 nM.
For `COc1c(Nc2cc(C)[nH]n2)nc(N(C)c2ccc(-c3nnc(C)o3)cc2)nc1-c1cnn(C)c1` [Compound 72] the value was 820 nM; for `COc1ccc(F)c(N(C)c2nc(Nc3cc(C)[nH]n3)c(OC)c(-c3cnn(C)c3)n2)c1` [Compound 74], 1200 nM.
To `COc1c(Nc2cc(C)[nH]n2)nc(N(C)c2ccc(Br)cc2F)nc1-c1cnn(C)c1` [Compound 75] belongs 600 nM.
As to `COc1c(Nc2cc(C)[nH]n2)nc(N(C)c2ccc(S(=O)(=O)C(C)(C)C)cc2F)nc1-c1cnn(C)c1` [Compound 76], half-maximal inhibition (IC50) required 46 nM.
To `COc1c(Nc2cc(C)[nH]n2)nc(N(CCN(C)C)c2ccc(S(C)(=O)=O)cc2F)nc1-c1cnn(C)c1` [Compound 77] belongs 580 nM; to `COc1c(Nc2cc(C)[nH]n2)nc(N(C)c2cccc(S(C)(=O)=O)c2)nc1-c1cnn(C)c1` [Compound 78], 4500 nM; to `COc1c(Nc2cc(C)[nH]n2)nc(N(C)c2ccc([S+](C)[O-])cc2)nc1-c1cnn(C)c1` (centres unmarked) [Compound 79], 2300 nM.
Compound `COc1c(Nc2cc(C)[nH]n2)nc(N(C)c2ccc(-c3nccs3)cc2)nc1-c1cnn(C)c1` [Compound 80] displayed a concentration for half-maximal inhibition (IC50) of 910 nM.
For `Cc1cc(Nc2nc(N(C)c3ccc(S(=O)(=O)C(C)C)cc3)nc(-c3cnn(C)c3)c2C2CC2)n[nH]1` [Compound 81] the value was 73 nM.
To `Cc1cc(Nc2nc(N(C)c3ccc(S(=O)(=O)C(C)(C)C)cc3)nc(-c3cnn(C)c3)c2C2CC2)n[nH]1` [Compound 82] belongs 65 nM; to `COc1c(Nc2cc(C)[nH]n2)nc(N(C)c2ccc(S(C)(=O)=O)cc2)nc1-c1cnn(C)c1` [Compound 83], 190 nM; to `COc1c(Nc2cc(C)[nH]n2)nc(N(c2ccc(S(C)(=O)=O)cc2F)C(C)C)nc1-c1cnn(C)c1` [Compound 84], 140 nM.

The values are drawn from patent US20250177396A1, “POLO-LIKE KINASE 4 (PLK4) INHIBITORS, PHARMACEUTICAL COMPOSITIONS, METHODS OF PREPARATION AND USES THEREOF” (Repare Therapeutics Inc., priority 2022, published 2025).
